Measured values as given in patent US5147876A, “2,6-di,2,4,6-, 2,5,6-tri and 2,4,5,6-tetra-substituted pyrimidines, their pharmaceutically acceptable salts, pharmaceutical compositions containing same and their use in the treatment of neurological diseases” (Mitsui Petrochemical Industries, Ltd., priority 1988, dated 1992).

What was measured:
[1] = tested on: neuro-2a (mouse neuroblastoma cells); assay: Action on neuro-2a: proportion of cells containing outgrown neurites; assay type: cell-based; conditions: mean ± S.D.
Procedure, shortened: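 Read-out is the percentage of neurite-bearing cells (neurite ≥2× long cell diameter), counted microscopically over more than 200 cells per well. Before fixation and staining, neuro-2a cells (1,000/well, DMEM + 10% FCS) were cultured for one day at 37 °C; up to six compound concentrations, three runs each.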

[2] = tested on: NS-20Y (mouse neuroblastoma cells); assay: Activity on NS-20Y cells: appearance of neurites; assay type: cell-based
Procedure, shortened: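 Mouse neuroblastoma NS-20Y cells were grown in polyornithine-coated dishes in DMEM with 10 % FCS, 100 units/ml penicillin G sodium and 100 micrograms/ml streptomycin sulfate, at 37° C under 5 % carbon dioxide, and exposed to compound. Cells were fixed with 4 % glutaraldehyde, stained with 0.05 % methylene blue, and the fraction bearing neurites at least twice the cell's long diameter was counted microscopically.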

Acute toxicity on mice = assay type: in vivo; conditions: mouse, in vivo, ip, 24 hours after administration; read-out: Estimated LD50
Experimental: The acute toxicity of the compounds of the invention was examined by the following method.
Male ddy-strain 5-week old mice, 4-6- per group, were used as experimental animals. Each of the compounds was intraperitoneally (i.p.), and the toxicity of the compound was assessed 24 hours after the administration.

Structure (SMILES) | Number of cells having neurites with a length at least two times the diameter of each cell/total number of cells ([1]; 0.1 mM) [%] | Number of cells having neurites with a length at least two times the diameter of each cell/total number of cells ([1]; 0.3 mM) [%] | Number of cells in which neurites appeared/total number of cells ([2]; 24 hours, 0.1 mM) | LD50 at 24 h (Acute toxicity on mice) [mg/kg] | Number of cells having neurites with a length at least two times the diameter of each cell/total number of cells ([1]; 0.03 mM) [%] | Number of cells in which neurites appeared/total number of cells ([2]; 48 hours, 0.1 mM) | Number of cells having neurites with a length at least two times the diameter of each cell/total number of cells ([1]; 1 mM) [%] | other results
CN(C(=O)c1ccccc1)c1ccnc(N2CCCCC2)n1 [Compound 136] | 11.6 ± 6.3 | 12.1 ± 2.9 | 9/50 | > 1000 | – | – | – | Number of cells in which neurites appeared/total number of cells ([2]; 24 hours, 0.4 mM): 42/50; Number of cells in which neurites appeared/total number of cells ([2]; 48 hours, 0.4 mM): 15/50
Cc1cnc(N2CCC(c3ccccc3)CC2)nc1N(C)C(=O)c1ccccc1 [Compound 424] | 7.6 ± 1.3 | – | – | > 1000 | 4.5 ± 1.4 | – | – | Number of cells in which neurites appeared/total number of cells ([2]; 24 hours, 0.4 mM): 16/50; Number of cells in which neurites appeared/total number of cells ([2]; 48 hours, 0.4 mM): 3/50
CN(C(=O)c1ccccc1)c1ccnc(N2CCN(Cc3ccccc3)CC2)n1 [Compound 368] | 9.0 ± 1.8 | – | 14/50 | 500 to 1000 | 3.5 ± 0.5 | 5/50 | – | Number of cells in which neurites appeared/total number of cells ([2]; 48 hours, 0.05 mM): 8/51
CN(C(=O)C=Cc1ccccc1)c1ccnc(N2CCC(c3ccccc3)CC2)n1 [Compound 170-2] | 14.7 ± 1.1 | 5.6 ± 2.1 | 3/50 | 500 to 1000 | – | 2/50 | 13.9 ± 3.0 | –
CN(C(=O)c1ccc(Cl)cc1)c1ccnc(N2CCC(c3ccccc3)CC2)n1 [Compound 240] | 38.7 ± 4.5 | 33.2 ± 0.9 | – | > 1000 | 19.8 ± 5.7 | – | 30.9 ± 5.9 | Number of cells in which neurites appeared/total number of cells ([2]; 24 hours, 0.2 mM): 4/50; Number of cells in which neurites appeared/total number of cells ([2]; 48 hours, 0.2 mM): 3/50
CC(=O)N(C)c1cc(C)nc(N2CCC(c3ccccc3)CC2)n1 [Compound 392] | 14.6 ± 6.0 | 30.9 ± 5.7 | 8/50 | 500 to 1000 | – | 3/43 | 23.8 ± 4.2 | Number of cells having neurites with a length at least two times the diameter of each cell/total number of cells ([1]; 3 mM): 11.1 ± 9.7%; Number of cells in which neurites appeared/total number of cells ([2]; 48 hours, 0.05 mM): 6/51
CC(=O)N(C)c1ccnc(N2CCC(c3ccccc3)CC2)n1 [Compound 208] | – | – | 27/53 | > 1000 | – | 28/50 | 10.6 ± 1.5 | Number of cells having neurites with a length at least two times the diameter of each cell/total number of cells ([1]; 0.5 mM): 7.2 ± 2.3%; Number of cells having neurites with a length at least two times the diameter of each cell/total number of cells ([1]; 2 mM): 11.1 ± 1.2%; Number of cells having neurites with a length at least two times the diameter of each cell/total number of cells ([1]; 3 mM): 8.0 ± 4.0%; Number of cells in which neurites appeared/total number of cells ([2]; 24 hours, 0.25 mM): 17/51
CN1C(=O)Cc2cnc(N3CCN(C(c4ccccc4)c4ccccn4)CC3)nc21 (stereo not shown) [Compound 3192] | 9.7 ± 1.1 | 3.7 ± 3.2 | – | 500 to 1000 | – | – | – | Number of cells in which neurites appeared/total number of cells ([2]; 24 hours, 0.02 mM): 6/50; Number of cells in which neurites appeared/total number of cells ([2]; 48 hours, 0.02 mM): 4/50
O=C(Nc1ccnc(N2CCC(c3ccccc3)CC2)n1)c1ccccc1 [Compound 160] | 11.3 ± 6.3 | 6.7 ± 4.3 | – | > 1000 | – | – | – | Number of cells in which neurites appeared/total number of cells ([2]; 24 hours, 0.5 mM): 10/53; Number of cells in which neurites appeared/total number of cells ([2]; 48 hours, 0.5 mM): 2/50
CN(C(=O)c1ccccc1)c1ccnc(N2CCCC2)n1 [Compound 120] | 4.9 ± 1.0 | 7.5 ± 4.1 | – | > 1000 | – | – | – | Number of cells in which neurites appeared/total number of cells ([2]; 24 hours, 0.5 mM): 23/50; Number of cells in which neurites appeared/total number of cells ([2]; 48 hours, 0.5 mM): 4/50
Cc1cc(N(C)C(=O)c2ccccc2)nc(N2CCC(c3ccccc3)CC2)n1 [Compound 400] | – | 11.4 ± 4.3 | 9/50 | 500 to 1000 | – | 3/50 | 16.0 ± 2.7 | Number of cells in which neurites appeared/total number of cells ([2]; 24 hours, 0.4 mM): 30/53; Number of cells in which neurites appeared/total number of cells ([2]; 48 hours, 0.4 mM): 3/48
CC1CCN(c2ccnc(N(C)C(=O)c3ccccc3)n2)CC1 [Compound 612] | 19.4 ± 3.9 | 22.4 ± 2.4 | 2/50 | 500 to 1000 | 19.1 ± 3.0 | 2/50 | – | Number of cells having neurites with a length at least two times the diameter of each cell/total number of cells ([1]; 0.01 mM): 13.8 ± 1.5%
CN(C(=O)c1ccccc1)c1nccc(N2CCCCC2)n1 [Compound 604] | 18.7 ± 4.1 | 24.6 ± 2.9 | – | < 500 | – | – | – | Number of cells in which neurites appeared/total number of cells ([2]; 24 hours, 0.02 mM): 6/50; Number of cells in which neurites appeared/total number of cells ([2]; 24 hours, 0.4 mM): 7/50; Number of cells in which neurites appeared/total number of cells ([2]; 48 hours, 0.02 mM): 2/50
CN(C(=O)c1ccccc1)c1ccnc(N2CCC(Cc3ccccc3)CC2)n1 [Compound 304] | 38.1 ± 1.6 | 15.3 ± 6.3 | 40/50 | > 1000 | – | – | – | Number of cells in which neurites appeared/total number of cells ([2]; 48 hours, 0.01 mM): 3/50
CC1CCN(c2nccc(N(C)C(=O)c3ccccc3)n2)CC1 [Compound 144] | 13.7 ± 7.8 | 33.8 ± 8.6 | 37/50 | > 1000 | – | 31/50 | – | Number of cells in which neurites appeared/total number of cells ([2]; 48 hours, 0.025 mM): 6/50; Number of cells in which neurites appeared/total number of cells ([2]; 48 hours, 0.05 mM): 8/52
CN(C(=O)c1ccccc1)c1ccnc(N2CCCc3ccccc32)n1 [Compound 328] | 28.0 ± 6.8 | 10.6 ± 3.4 | 32/50 | > 1000 | 10.2 ± 8.2 | 12/51 | – | Number of cells having neurites with a length at least two times the diameter of each cell/total number of cells ([1]; 0.01 mM): 6.6 ± 0.5%; Number of cells in which neurites appeared/total number of cells ([2]; 48 hours, 0.025 mM): 8/50
COc1ccc(C(=O)N(C)c2ccnc(N3CCC(c4ccccc4)CC3)n2)cc1 [Compound 272] | 30.9 ± 2.8 | 15.9 ± 0.5 | 33/50 | > 1000 | 4.8 ± 1.3 | 17/50 | 17.0 ± 4.3 | Number of cells in which neurites appeared/total number of cells ([2]; 24 hours, 0.2 mM): 24/50
COC(=O)c1cnc(NC(C)C)nc1C.O=C(O)/C=C\C(=O)O [Compound 804, 2-isopropylamino-4-methyl-5-methoxycarbonylpyrimidine maleate] | – | 9.4 ± 1.3 | – | 500 to 1000 | – | – | 26.1 ± 6.8 | Number of cells having neurites with a length at least two times the diameter of each cell/total number of cells ([1]; 0.5 mM): 13.0 ± 2.1%; Number of cells having neurites with a length at least two times the diameter of each cell/total number of cells ([1]; 2 mM): 18.8 ± 3.1%; Number of cells in which neurites appeared/total number of cells ([2]; 24 hours, 0.25 mM): 8/55; Number of cells in which neurites appeared/total number of cells ([2]; 24 hours, 0.5 mM): 7/50; Number of cells in which neurites appeared/total number of cells ([2]; 48 hours, 0.25 mM): 8/50; Number of cells in which neurites appeared/total number of cells ([2]; 48 hours, 0.5 mM): 25/51
